Measurements from patent US6331555A, “Treatment of platelet derived growth factor related disorders such as cancers” (priority 1999, dated 2001).
Several values for one entry are separate records, joined by “and”; a condition that tells them apart may be missing. Identical values can stand only once. Like-named read-outs stand apart in the source and are kept apart here.

What was measured:
PDGF receptor = details: cited from earlier work
PDGFR [1] = molecular target: PDGFR (Homo sapiens, UniProt P09619); experiment: PDGF-stimulated receptor phosphorylation in U1242 cells, ELISA; format: cell-based; set-up: U1242 (PDGF-β receptor); host or cells: U1242 MG glioma cells; details: 100 ng/ml PDGF-BB; read-out: ELISA P-TYR U1242 IC50
Sequence of PDGFR (Homo sapiens, UniProt P09619) (P09619 33-1106): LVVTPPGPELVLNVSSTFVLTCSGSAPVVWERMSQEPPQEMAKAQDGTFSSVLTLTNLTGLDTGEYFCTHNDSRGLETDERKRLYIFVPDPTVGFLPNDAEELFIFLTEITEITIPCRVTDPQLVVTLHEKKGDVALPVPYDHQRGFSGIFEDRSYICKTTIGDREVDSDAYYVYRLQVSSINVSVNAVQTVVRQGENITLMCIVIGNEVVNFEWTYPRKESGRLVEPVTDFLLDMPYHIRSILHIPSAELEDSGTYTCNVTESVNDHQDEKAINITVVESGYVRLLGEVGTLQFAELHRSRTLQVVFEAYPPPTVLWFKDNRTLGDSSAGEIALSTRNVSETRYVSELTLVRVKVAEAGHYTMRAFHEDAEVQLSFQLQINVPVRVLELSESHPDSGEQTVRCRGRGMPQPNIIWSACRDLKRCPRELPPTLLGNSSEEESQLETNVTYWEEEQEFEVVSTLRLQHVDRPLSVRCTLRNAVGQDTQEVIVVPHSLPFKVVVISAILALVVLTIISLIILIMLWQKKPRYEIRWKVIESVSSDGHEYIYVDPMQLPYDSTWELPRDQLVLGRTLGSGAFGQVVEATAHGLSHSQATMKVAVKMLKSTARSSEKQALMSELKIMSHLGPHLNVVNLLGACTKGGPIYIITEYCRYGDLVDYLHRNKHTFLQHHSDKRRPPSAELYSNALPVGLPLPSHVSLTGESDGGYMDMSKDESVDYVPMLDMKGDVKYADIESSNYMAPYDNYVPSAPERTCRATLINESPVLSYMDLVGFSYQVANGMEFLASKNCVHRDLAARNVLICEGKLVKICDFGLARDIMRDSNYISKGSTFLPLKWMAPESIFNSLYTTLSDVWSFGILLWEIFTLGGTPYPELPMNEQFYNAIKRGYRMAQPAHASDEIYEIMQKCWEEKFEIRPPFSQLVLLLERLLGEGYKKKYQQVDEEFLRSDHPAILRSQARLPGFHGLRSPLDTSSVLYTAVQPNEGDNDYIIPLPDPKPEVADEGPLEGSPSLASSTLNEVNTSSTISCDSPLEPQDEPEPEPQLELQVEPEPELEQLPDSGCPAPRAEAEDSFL
Procedure: (§1) For ELISA assays, cells were grown to 80-90% confluency in growth medium and seeded in 96-well tissue culture plates in 0.5% serum at 25,000 to 30,000 cells per well. After overnight incubation in 0.5% serum-containingmedium, cells were changed to serum-free medium and treated with test compound for 2 hr in a 5% CO2, 37° C. incubator. Cells were then stimulated with ligand for 5-10 min followed by lysis with HNTG (20 mM Hepes, 150 mM NaCl, 10% glycerol, 5 mM EDTA, 5 mM Na3 VO4 0.2% Triton X-100, and 2 mM NaPyr). […] Lysates were incubated with shaking for 1 hr at room temperature. The plates were washed with TBST four times and then incubated with polyclonol anti-phosphotyrosine antibody at room temperature for 30 min. Excess anti-phosphotyrosine antibody was removed by rinsing the plate with TBST four times. Goat anti-rabbit IgG antibody was added to the ELISA plate for 30 min at room temperature followed by rinsing with TBST four more times.
U1242 MG cells were plated in 96-well plates at a concentration of 5×10^4 cells/well in cultured media containing 0.5% FBS. The cells were incubated for 24 hours. The cells were then treated with a particular compound for 2 hours followed by the addition of 100 ng/ml PDGF-BB and incubation for 10 minutes.
Cells were lysed in 0.2 M Hepes, 0.15 M NaCl, 10% V/V glycerol, 0.04% Triton X-100, 5 mM EDTA, 5 MM Na^+ vanadate and […] Na^+ pyrophosphate. Cell lysates were then added to an ELISA plate coated with an anti-PDGF receptor antibody (Genzyme). ELISA plates were coated at […] of antibody/well in […] of PBS for 18 hours at 4° C. prior to the addition of the lysate.
The lysate was incubated in the coated plates for 1 hour and then washed four times in TBST (35 mM Tris-HCl pH 7.0, 0.15 M NaCl, 0.1% Triton X-100). Anti-phosphotyrosine antibody ([…] in PBS) was added and the mixture was incubated for 30 minutes at room temperature. The wells were then washed four times in TBST, a secondary antibody conjugated to POD (TAGO) was added to each well, and the treated wells were incubated for 30 minutes at room temperature. The wells were then washed four times in TBST, ABTS/H2 O2 solution was added to each well and the wells were incubated for two minutes. Absorbance was then measured at 410 nm.

U1242 cells [2] = experiment: Cytotoxicity in U1242 cells, MTT; format: cell-based, human; details: Homo sapiens, read-out: CYTOXICITY MTT U1242 LD50; heading: CYTOXICITY MTT U1242 LD50
Procedure: (§2) The cytotoxicity of each drug was also determined. The cells were plated as described above. Following incubation with drug, cell survival was measured by an MTT assay as described by Mossman J. Immunol. Methods 65:55-63 (1983), or by measuring the amount of LDH released (Korzeniewski and Callewaert, J. Immunol. Methods 64:313 (1983); Decker and Lohmann-Matthes, J. Immunol. Methods 115:61 (1988) .

U1242 cells [3] = experiment: Cytotoxicity in U1242 cells, LDH; format: cell-based; details: Homo sapiens, read-out: CYTOXICITY LDH U1242 LD50; heading: CYTOXICITY LDH U1242 LD50
Procedure: as §2

PDGFR [4] = experiment: Receptor tyrosine kinase inhibition, PDGFR; format: cell-based; details: W = done in Western assay; read-out: PDGFR IC50 (W)
Procedure: (§3) For western blotting, cells were plated in 2 mL growth medium into 6-well dishes (500,000 cells per well) and allowed to attach overnight. […] The plates were then incubated overnight at 37° C., ambient CO2. […] After a 7 min incubation at room temperature with ligand, the plates were put on ice and washed three times with 1 mL ice-cold PBS plus 1 mM orthovanadate. Lysis was achieved by pipetting cells in 0.5 mL of buffer containing 50 mM Tris, pH 7.4, 10% glycerol, 1% NP-40, 2 mM EDTA, 1 mM sodium vanadate (Na3 VO4), 10 mM pyrophosphate, 1 mM PMSF, […]. A 300 μL aliquot of each lysate was immediately added to 100 μL 4×Laemmli sample buffer ([…] Tris pH 6.9, 20% glycerol, 7% SDS, 5 mM EDTA, 5% β-mercaptoethanol) containing phosphatase inhibitors, 2 mM Na3 VO4 and 10 mM pyrophosphate. Samples were boiled for 5 min, frozen in dry ice-ethanol, and stored at -80° C. […] The integrity of the protein-to-membrane transfer was determined by staining with 1% Ponceau S in 5% acetic acid for 5 min. After destaining in several distilled water rinses, the membrane was soaked overnight in blocking buffer containing 5% milk in Tris-buffered saline, 0.05% Tween 20. Phosphotyresine was detected by incubating the membrane (1 hr at room temperature) with an anti-phosphotyosine antiserum diluted in blocking buffer at 1:3000. […] The antibodies were visualized using ECL reagent from Amersham and by exposure to Fuji RX film.
as §1, with “incubator.” for “incubator. Cells were then stimulated with ligand for 5-10 min followed by lysis with HNTG (20 mM Hepes, 150 mM NaCl, 10% glycerol, 5 mM EDTA, 5 mM Na3 VO4 0.2% Triton X-100, and 2 mM NaPyr).”
The ability of different compound to inhibit different receptor tyrosine kinases was tested.

LD10 = details: in vivo
C6 glioma cells = experiment: C6 glioma SC xenograft in mice; format: in vivo
Procedure: (§4) Cell lines were grown in appropriate medium (see Appendix 1). Cells were harvested at or near confluency with 0.05% Trypsin-EDTA and pelleted at 450×g for 10 min. Pellets were resuspended in sterile PBS or media (without FBS) to a particular concentration and the cells were implanted into the hindflank of mice. Tumor growth was measured over 3 to 6 weeks using venier calipers. Tumor volumes were calculated as a product of length×width×height unless otherwise indicated. P values were calculated using the Students' t-test.
(§5) C6 and SKOV-3(T) cells were grown in culture, as described in "cell growth" above, and implanted into the hind flank of a female Balb/c nu/nu mouse at 3×10^6 cells (for C6 experiments), or 1×10^7 cells (for SKOV-3 experiments) in […] of PBS on Day 0. U87MG, U118MG or U373MG human glioblastoma cells (obtained from the ATCC), or A4312 were also implanted into athymic mice. […] Tumors were measured using venier calipers and tumor volume was calculated as a product of tumor length, width, and height.

[5] = C6 glioma SC xenograft in mice; format: in vivo; details: rat, in vivo, ip
Procedure: as §4, §5

PDGF-R (U1242) = molecular target: T1, PDGF-R (U1242) (Homo sapiens, UniProt P09619); experiment: U1242 kinase (PDGF-R activity); format: cell-based
T1 construct: U1242 (PDGF-β receptor); host or cells: U1242 MG glioma cells
T1 sequence (P09619 33-1106): as above
Procedure: as §3
as §1, with “incubator.” for “incubator. Cells were then stimulated with ligand for 5-10 min followed by lysis with HNTG (20 mM Hepes, 150 mM NaCl, 10% glycerol, 5 mM EDTA, 5 mM Na3 VO4 0.2% Triton X-100, and 2 mM NaPyr).”
PDGF-R activity, C6 SRB, and in vivo efficacy were measured using the procedures described in the appendices above.

C6 cells = experiment: C6 SRB growth assay; format: cell-based, rat; details: Rattus norvegicus, C6; read-out: C6 SRB IC50
[6] = test system: Platelet-derived growth factor-dependent tyrosine phosphorylation; details: intact cells; cited from earlier work
A431 cells = details: cited from earlier work
PDGF α-receptor = details: high concentrations; cited from earlier work
PDGF β-receptor = details: cited from earlier work
[7] = W = done in Western assay, read-out: U1242 KINASE IC50 (W)

For `Cc1ccc(C(=O)Nc2ccc(S(=O)(=O)O)c3cc(S(=O)(=O)O)cc(S(=O)(=O)O)c23)cc1NC(=O)c1cccc(NC(=O)Nc2cccc(C(=O)Nc3cc(C(=O)Nc4ccc(S(=O)(=O)O)c5cc(S(=O)(=O)O)cc(S(=O)(=O)O)c45)ccc3C)c2)c1` [suramin], the receptor binding (PDGF receptor) is given as “interfere with receptor binding”.
In the case of `N#CC(C(=O)Nc1ccc(C(F)(F)F)cc1)=C(O)c1cccc(Oc2ccccc2)c1` [Compound B16, 2-Propenamide, 2-cyano-3-hydroxy-3-((3-phenoxy)phenyl)-N-[(4-trifluoromethyl)phenyl]], the IC50 (PDGFR [1]) is reported as 35 µM and the CC50 (U1242 cells [2]) is reported as 50 µM.
`COc1cc2nc(Cl)c(-c3ccccc3)cc2c(OC)c1OC` [Compound G11] gave an IC50 (PDGFR [1]) of 15 µM, a CC50 (U1242 cells [3]) of 90 µM and an IC50 (PDGFR [4]) of 20 µM.
In the case of `c1ccc(-c2cnc3ncccc3n2)cc1` [Compound G16], the IC50 (PDGFR [1]) is reported as 35 µM and the CC50 (U1242 cells [2]) is reported as > 100 µM.
In the case of `O=C(c1ccccc1)c1ccc2ncc(-c3ccccc3)nc2c1` [Compound G21], the IC50 (PDGFR [1]) is reported as 6 µM, the LD10 (LD10) is reported as > 200 mg/kg and the “C6 in vivo EFFICACY” value (C6 glioma cells; at 40 mg/kg) is reported as “no effect”. For the same compound, the mortality ([5]; 40 mg/kg) was 0%, the IC50 (PDGF-R (U1242); [7]) was 6 µM and the IC50 (PDGF-R (U1242); read-out: U1242 KINASE IC50) was > 50 µM. For the same compound, the IC50 (C6 cells) was > 12 µM and the CC50 (U1242 cells [3]) was > 100 µM.
In the case of `O=C(NN=Cc1ccc(O)c(O)c1)C(=O)Nc1cccc([N+](=O)[O-])c1` [Compound E15], the IC50 (PDGFR [1]) is reported as 5 µM, the LD10 (LD10) is reported as > 400 mg/kg and the inhibition in vivo at 15 mg/kg (C6 glioma cells; Rattus norvegicus, C6 glioma, sc, at 15 mg/kg, read-out: C6 in vivo EFFICACY) is reported as 66%. The inhibition in vivo at 50 mg/kg (C6 glioma cells; Rattus norvegicus, C6 glioma, sc, at 50 mg/kg, read-out: C6 in vivo EFFICACY) was 58%, the inhibition in vivo at 100 mg/kg (C6 glioma cells; Rattus norvegicus, C6 glioma, sc, at 100 mg/kg, read-out: C6 in vivo EFFICACY) was 0% and the mortality at 336 h ([5]; 15 mg/kg) was 0%. For the same compound, the mortality at 360 h ([5]; 50 mg/kg) was 12.5%, the mortality at 192 h ([5]; 100 mg/kg) was 100% and the IC50 (PDGF-R (U1242); [7]) was 5 µM and 10 µM. For the same compound, the IC50 (PDGF-R (U1242); read-out: U1242 KINASE IC50) was > 50 µM, the IC50 (C6 cells) was 4.4 µM and the CC50 (U1242 cells [2]) was > 100 µM.
For `CC(O)=C(C#N)C(=O)Nc1ccc(C(F)(F)F)cc1` [A77 1726], the “Platelet-derived growth factor-dependent tyrosine phosphorylation” value [6] is listed as “inhibited by A77 1726 in intact cells at concentrations similar to EGF-dependent phosphorylation” and the “growth of A431 cells” value (A431 cells) is listed as “inhibited growth of A431 cells”.
For neomycin, the “binding of PDGF-BB to the α-receptor” value (PDGF α-receptor) is given as “inhibited the binding of PDGF-BB to the α-receptor” and the “binding of PDGF-BB to the β-receptor” value (PDGF β-receptor) is given as “did not inhibit binding to the β-receptor”.
